Test results taken from ChEMBL document CHEMBL1145735, “Synthesis and antitumor activity of novel C-8 ester derivatives of leinamycin” (Bioorg Med Chem Lett, 2003).
pIC50: −log10 of the molar value.

Assays:
Mus musculus [1] = test: Antitumor activity against human A-2780 tumor cells, at a dose of 18 mg/kg upon i.v. administration in nude mice; format: functional; settings: route intravenous
Mus musculus [2] = test: Antitumor activity against human HCT116 tumor cells, at a dose of 18 mg/kg upon i.v. administration in nude mice; format: functional; settings: route intravenous
Mus musculus [3] = test: In vivo antitumor activity against murine sarcoma 180 cells at an optimal dose of 16 mg/kg.; format: functional
HeLa = test: In vitro antiproliferative activity against HeLa S3 cells.; format: functional, cell-based; settings: Homo sapiens
Mus musculus [4] = test: Antitumor activity against human Lu-65 tumor cells, at a dose of 18 mg/kg upon i.v. administration in nude mice; format: functional; settings: route intravenous
Mus musculus [5] = test: In vivo antitumor activity against lymphocytic leukemia P388 in mice expressed as maximal increase in life span at an optimal dose of 16 mg/kg.; format: functional
Mus musculus [6] = test: Antitumor activity against human A-2780 tumor cells, at a dose of 8.0 mg/kg upon i.v. administration in nude mice; format: functional; settings: route intravenous
Mus musculus [7] = test: Antitumor activity against human HCT116 tumor cells, at a dose of 8.0 mg/kg upon i.v. administration in nude mice; format: functional; settings: route intravenous
Mus musculus [8] = test: Antitumor activity against human Lu-65 tumor cells, at a dose of 8.0 mg/kg upon i.v. administration in nude mice; format: functional; settings: route intravenous
Mus musculus [9] = test: In vivo antitumor activity against murine sarcoma 180 cells at an optimal dose of 1 mg/kg.; format: functional

C/C1=C\[C@@H](OC(=O)CNC(=O)CCNC(=O)OCc2ccccc2)C(=O)/C=C/C=C/c2csc(n2)[C@@H](C)N2C(=O)C[C@@]([C@@](C)(O)C(=O)SCc3oc(=O)oc3C)(CC1)[S+]2[O-] (stereo partly specified)
T/C (Mus musculus [1]): 0.46
T/C (Mus musculus [2]): 0.64
T/C (Mus musculus [3]): 0.15
pIC50 (HeLa): 7.96
T/C (Mus musculus [4]): 0.48
ILS at 16 mg/kg (Mus musculus [5]): 91%

C/C1=C\[C@@H](O[C@H]2CCCCO2)C(=O)/C=C/C=Cc2csc(n2)[C@@H](C)N2C(=O)C[C@@]([C@@](C)(O)C(=O)SCc3oc(=O)oc3C)(CC1)[S+]2[O-] (stereo partly specified)
T/C (Mus musculus [6]): 0.43
T/C (Mus musculus [7]): 0.48
T/C (Mus musculus [8]): 0.33

COCCOCC(=O)O[C@@H]1/C=C(\C)CC[C@]2(CC(=O)N[C@@H](C)c3nc(cs3)/C=C\C=C\C1=O)[S+]([O-])SC(=O)[C@]2(C)O (stereo partly specified)
T/C (Mus musculus [9]): 0.72
pIC50 (HeLa): 7.59
